This is an account of results in PubChem BioAssay AID179 (DTP/NCI, 2004).

As a reminder, the pEC50 is −log10 of the EC50, conventionally taken in molar units. As usually defined, the pIC50 is −log10 of the IC50, conventionally taken in molar units. A low value points to a high IC50.

Structures are written as SMILES. pEC50, pIC50: −log10 of the molar value. Where “and” joins values, the source holds several entries; their conditions need not be identical. Identical values can stand only once. Calls of active or inactive are those of the source.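 The calls were made as follows: active = compounds giving half or more protection of infected cells from virus-caused growth loss, again on retest; inactive = the rest.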 Where a SMILES comes first, the peptide text is derived from it. Bridges are numbered along the chain shown (N, C = ends). Roman numbers before positions name the chains, in order.

The test has as its system CEM cells HIV-1 protection, formazan growth assay. As to the kind of experiment: NCI AIDS Antiviral Assay. The conditions noted are these: for pIC50: measured here: growth of uninfected CEM cells. A digest of the protocol:
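Protection of CEM cells against HIV-1 was scored from cell growth (soluble formazan) across five concentrations, with parallel uninfected cells. Lack of protection may reflect toxicity.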

For `O=C(Cn1c(=O)oc2ccc(C(=O)c3ccccc3Cl)cc21)c1ccc([N+](=O)[O-])cc1`, the pEC50 was below 3.70 and the negative logarithm of the IC50 (pIC50) was 4.77.
In the same order, the values of `Clc1nn2nnnc2c2ccccc12` are below 4.18 and 5.91.
For the compound `CC(=O)OCC1OC(n2c(=S)n(-c3ccccc3)c(=O)c3cc(Br)ccc32)C(OC(C)=O)C(OC(C)=O)C1OC(C)=O` (centres undefined), the pEC50 is below 4.97 and the negative-log IC50 (pIC50) was below 4.97.
In the case of `Cc1ccc(-n2nc3c(c(C#N)c2=O)-c2ccccc2C3=O)cc1`, the outcome was inactive.
Regarding `CCOC(=O)C1(C)CCCC1N` (centres undefined), the pEC50 is below 3.70 and the negative logarithm of the IC50 (pIC50) is below 3.70.
Consider `CCCNC(=O)c1nc(SC)sc1NC(=O)c1ccc(OC)cc1`, for which the pEC50 was below 3.70 and the pIC50 was below 3.70.
As to `Cc1nnc(Nc2ccc(Cl)cc2)o1`, the pEC50 is below 3.70 and the negative logarithm of the IC50 (pIC50) is below 3.70.
As for `c1ccc(Cc2cccc3cc(-c4ccc(-c5ccccc5)cc4)[nH]c23)cc1`, the pEC50 is below 3.70 and the pIC50 is 3.78.
Regarding `CN(C)/N=N/c1nc2c(c(=O)n(C)c(=O)n2C)n1CC(O)CO` (centres undefined), the pEC50 is below 3.70 and the negative-log IC50 (pIC50) is below 3.70.
Consider `CC(C)(C)OC(=O)NC1CC=CCC1NC(=O)OC(C)(C)C` (centres undefined), for which the pEC50 is below 3.70 and the negative-log IC50 (pIC50) is below 3.70.
For the compound `O=c1c(C2=NCCC2)c(-c2ccc[nH]2)[nH]n1-c1ccccc1`, the pEC50 is below 3.70 and the pIC50 was below 3.70.
With `Cn1c(=O)[nH]c2nccnc2c1=O`, the pEC50 was below 3.70 and the negative-log IC50 (pIC50) is below 3.70.
Consider `CC(NC(=O)C(N)CSSCC(N)C(=O)NC(C)C(=O)O)C(=O)O` (stereo not drawn) (I: H-Cys-Ala-OH / II: H-Cys-Ala-OH; disulfide I:1-II:1; configuration not given here), for which the pEC50 was below 3.75 and the negative logarithm of the IC50 (pIC50) is below 3.75.
For `C1=Cc2ccccc2/C1=C/c1cc2c3c(c1)CCCN3CCC2`, the pEC50 was below 4.36 and the negative-log IC50 (pIC50) is below 4.36.
Regarding `Cc1cccc2c(N)c3cccc(C(=O)NCCNCCN)c3nc12`, the pEC50 is below 6.70 and the pIC50 was 6.96.
Consider `COC(=O)c1ccccc1N(C(=O)c1ccccc1)c1ccccc1C`, for which the outcome was inactive.
Take `COc1c(C)c(C/C=C(\C)CCCCO)c(OC)c2ccccc12`: the pEC50 was below 3.70 and the pIC50 was 4.64.
As to `Cc1cc(C#N)c(Nc2c(C)cccc2[N+](=O)[O-])s1`, the pEC50 is below 3.70 and the negative logarithm of the IC50 (pIC50) is 3.80.
For `O=C(c1c2c(cc3c1CC1(Cc4cc5c(cc4C1)CCCC5)C3)CCCC2)C(Br)Br`, the pEC50 was below 4.00 and the pIC50 was 5.31.
For `CCN1c2ccccc2-n2c(C)nnc2-c2c1n[nH]c2-c1ccccc1`, the pEC50 is below 3.70 and the negative logarithm of the IC50 (pIC50) was 4.55.
The like results for `CC(C)/C(Cl)=N\OC(=O)Nc1ccc(F)cc1F` were, in that order, below 3.70 and 5.14.
For `CNC1C(O)C(OC2C(N)CC(N)C(OC3OC(CN)=CCC3N)C2O)OCC1(C)O` (centres undefined), the outcome was inactive.
`CCCCCC#COC1CC(C)CC[C@@H]1C(C)C` (some centres undefined): the pEC50 was below 3.70 and the pIC50 is 3.96.
For `COc1cc(CNc2nc3c(NC(C)=O)cc(C(F)(F)F)cc3nc2-c2ccccc2)cc(OC)c1OC`, the pEC50 is below 4.86 and the negative logarithm of the IC50 (pIC50) is 4.93.
Turning to `CC1(C)O[C@]2(C)CC[C@@H]1[C@@H](O)[C@@H]2N1CCCC1`, the pEC50 is below 3.38 and the pIC50 was below 3.38.
Regarding `CCOC(=O)CSc1nc(-c2ccc(Cl)cc2)c(C#N)c(=O)[nH]1`, the pEC50 is below 3.70 and the pIC50 was 4.03.
Turning to `Cc1cnc(NCCCN(C)C)c2c1[nH]c1ccc3ccccc3c12`, the pEC50 is below 5.70 and the negative-log IC50 (pIC50) is 6.50.
In the case of `O=C1CCCC2=C(N1)C(=O)C=CC2=O`, the pEC50 was below 3.02 and the pIC50 is 5.06.
For the compound `COC(=O)C1=C(OC)C(=P2(c3ccccc3)CC(c3ccccc3)=C2c2ccccc2)C(C(=O)OC)=C1C(=O)OC` (centres undefined), the outcome was inactive.
As for `O=c1cc(O)c2ccccc2o1`, the pEC50 was below 2.81 and the negative-log IC50 (pIC50) was 3.21.
For `CCSC1=CC(Cc2ccc(OC)cc2)N(C(=O)OC)C1` (centres undefined), the pEC50 was below 4.07 and the negative-log IC50 (pIC50) was 4.22.
As for `COC(=O)c1c(C)c2c(c(C)c1C(=O)OC)-c1c(C)ccc3ccc(C)c-2c13`, the pEC50 is below 4.00 and the negative logarithm of the IC50 (pIC50) was 5.43.
Consider `C=C(C)C12CC(C)C34OC(CCCCCCCCCCC)(OC1C3C1OC1(CO)C(O)C1(O)C(=O)C(C)=CC14C)O2` (centres undefined), for which the outcome was active.
On to `COc1ccc2c(c1OC)C(=O)N1C2=Cc2c(cc3c(c2OC)OCO3)CC1N(C)C` (centres undefined), for which the pEC50 is below 3.70 and the pIC50 is 4.57.
In the case of `NC(=O)C12C3C4C1C1C2C3C41C(N)=O` (centres undefined), the pEC50 was below 4.15 and the pIC50 was below 4.15.
Regarding `Cc1cc(S(=O)(=O)Nc2n[nH]c(N)n2)c(SCC(=O)O)cc1Cl`, the pEC50 was below 3.70 and the negative logarithm of the IC50 (pIC50) was below 3.70.
`Cc1nc2nc[nH]n2c1N=Nc1ccccc1`: the pEC50 is below 3.70 and the pIC50 is below 3.70.
In the case of `COC1=CC(=O)C2C(C1=O)[C@@H]1c3ccccc3C[C@H]21` (some centres undefined), the pEC50 was below 3.71 and the pIC50 was below 4.00.
On to `Cc1cc(C)c(S(=O)(=O)ONC(=O)OC(C)(C)C)c(C)c1`, for which the result was inactive.
Turning to `O=S1(=O)OCCOS(=O)(=O)C1(Cl)Cl`, the pEC50 is below 4.30 and the negative-log IC50 (pIC50) was below 4.30.
On to `Cc1ccc(NCC2(/N=C/c3ccccc3)OC(CO)C(O)C2O)cc1` (centres undefined), for which the pEC50 was below 3.58 and the pIC50 is 5.18.
Consider `O=C(NC(O)(C(F)(F)F)C(F)(F)F)c1ccccc1`, for which the pEC50 is below 3.70 and the negative logarithm of the IC50 (pIC50) is 3.89.
Regarding `COc1cc(C(=O)/C=C/c2ccc(OCCSCCCCCCCCCCSCCOc3ccc(/C=C/C(=O)c4cc(OC)c(OC)c(OC)c4)cc3)cc2)cc(OC)c1OC`, the pEC50 was below 3.82 and the pIC50 is below 3.82.
As to `CC(C)(C)[Si](C)(C)OCC1OC(n2cnc3c(=O)[nH]c(NCc4ccccc4)nc32)C(O[Si](C)(C)C(C)(C)C)C1O[Si](C)(C)C(C)(C)C` (centres undefined), the pEC50 was below 3.70 and the pIC50 was 3.85.
Turning to `CC(C)CC(NC(=O)C(Cc1ccc(O)cc1)NC(=O)C(CO)NC(=O)C(CCC(N)=O)NC(=O)C1CCCN1C(=O)C(CC(C)C)NC(=O)C(C)NC(=O)CNC(=O)C(N)CCC(N)=O)C(=O)NCC(=O)O` (centres undefined) (H-QGALPQSYLG-OH; configuration not given here), the outcome was inactive.
On to `CCCCCCCCCCCCCCCCCCNc1ccn(C2OC(COP(=O)(O)OCC(COP(=O)(O)OCC3OC(n4cc(C)c(=O)[nH]c4=O)CC3N=[N+]=[N-])OC(=O)CCCCCCCCCCCCCCC)C(O)C2O)c(=O)n1` (centres undefined), for which the pEC50 is 4.95 and the pIC50 is 4.16.
With `CC(=O)Oc1cc(C)cc2ccc(-c3ccc4cc(C)cc(OC(C)=O)c4c3OC(C)=O)c(OC(C)=O)c12`, the pEC50 was below 3.70 and the negative logarithm of the IC50 (pIC50) was 4.54.
`CC1(C)NC(=S)NC1=O`: the pEC50 was below 3.70 and the negative-log IC50 (pIC50) was below 3.70.
Consider `CC(C)c1cc2c(O)c(c1)Cc1cc(C(C)C)cc(c1O)Cc1cc(C(C)C)cc(c1O)Cc1cc(C(C)C)cc(c1O)C2`, for which the pEC50 is below 5.20 and the pIC50 is below 5.20.
For the compound `CC1(C)OC(=O)C(=Cc2ccc(C#N)cc2)C(=O)O1`, the pEC50 is below 3.29 and the pIC50 is 5.64.
As to `Cc1c(NC(=O)CSC(=S)N2CCN(Cc3ccccc3)CC2)c(=O)n(-c2ccccc2)n1C`, the result was inactive.
Take `CC1S(=O)(=O)OCCCOS1(=O)=O`: the pEC50 was below 2.97 and the negative-log IC50 (pIC50) was below 2.97.
Consider `Cc1cccc2c3ccc4c(c3n(C)c12)C(=O)C=CC4=O`, for which the pEC50 is below 4.31 and the pIC50 is 4.61.
`O=C1/C(=C/c2ccccc2)N=C(c2ccccc2)N1n1c(-c2ccccc2)nc2ccccc2c1=O`: the pEC50 is below 3.70 and the pIC50 was 4.12.
Turning to `Cc1occc1C(=S)Nc1ccc(Cl)c(C(=O)OC(C)C2CC2)c1` (centres undefined), the pEC50 was 7.63 and the negative-log IC50 (pIC50) is 4.32.
Take `O=c1[nH]c(=O)n(C2CC(O)C(CO)O2)cc1C#Cc1ccc(F)cc1` (centres undefined): the pEC50 is below 3.14 and the pIC50 is below 3.14.
For the compound `O=C1NC(=O)C2C(=O)NC(=O)C1C2Cc1ccco1` (centres undefined), the pEC50 was below 3.02 and the pIC50 was below 3.02.
For the compound `COc1ccc(C2=C(N)c3ncccc3C2=O)cc1`, the pEC50 is below 3.70 and the pIC50 was 3.88.
`N=C(N)N1CCNc2ccccc2C1`: the result was inactive.
For `CC(C)CCCC(C)[C@H]1CC[C@H]2[C@@H]3CC[C@H]4C[C@@H](CCC=C(c5cc(Cl)c(OCc6ccc(CC(=O)O)cc6)c(C(=O)O)c5)c5cc(Cl)c(OCc6ccc(CC(=O)O)cc6)c(C(=O)O)c5)CC[C@]4(C)[C@H]3CC[C@]12C` (some centres undefined), the pEC50 is 5.77 and 5.85; the negative logarithm of the IC50 (pIC50) was 3.94 and 4.70.
In the case of `O=S(=O)(O)c1ccc2cc(S(=O)(=O)O)ccc2c1`, the outcome was inactive.
Regarding `CCOP(=S)(OCC)Oc1ccc2c(C)c(Cl)c(=O)oc2c1`, the pEC50 was below 4.43 and the pIC50 is below 4.43.
`CC(CC[C@@]1(C)C(=O)CCC2O[C@]21C)[C@H]1C[C@@H](c2ccoc2)OC1=O` (some centres undefined): the pEC50 is below 3.70 and the negative-log IC50 (pIC50) was 4.46.
As for `CCCC(=O)OC1C(C(O)CO)OC2OC(C)(C)OC21` (centres undefined), the pEC50 was below 3.06 and the negative logarithm of the IC50 (pIC50) was below 3.06.
Take `NC(N)=N/N=C/c1c[nH]c2ccccc12`: the pEC50 was below 3.02 and the pIC50 is 4.26.
Turning to `COc1ccccc1N1CCCSC1=Nc1ccccc1`, the pEC50 was 4.09 and the pIC50 is 3.67.
Regarding `O=C(/C=C/c1cccc2ccccc12)c1ccccc1Cl`, the pEC50 is below 4.89 and the pIC50 is 4.96.
The like results for `Clc1cccc(-c2ccc[nH]2)c1` were, in that order, below 3.70 and below 3.70.
For `S=C(/N=N/c1[nH]c2ccccc2c1NNC(=S)NC12CC3CC(CC(C3)C1)C2)NC12CC3CC(CC(C3)C1)C2`, the result was inactive.
In turn, `CCCCNC(=O)Sc1ccccc1C(=O)NCCC(N)=O` had a pEC50 of 6.03 and a negative logarithm of the IC50 (pIC50) of 3.93.
